The source of these data is patent publication US20040097408A1, “Compounds regulating cell proliferation and differentiation” (priority 2001, published 2004).

The subject of data set [1] is EpH4-A6 cells. The experiment in a line: anti-BrdU cytoblot assay (BrdU incorporation). It is filed as cell-based, mouse. On the procedure:
In order to look for selective inhibitors of cell proliferation dependent on Neu, a chemical library was screened using a cytoblot assay. The ability of small molecules to inhibit cell proliferation at a final concentration of […] determined by the relative incorporation of BrdU into DNA in EpH4-A6 Neu-overexpressing and EpH4-EV control cells.
A modified version of a protocol previously described was used for the cytoblot assay (Stockwell et al. (1999) Chem Biol 6(2), 71-83). Briefly, for this cytoblot assay, 2,000 control (EpH4-EV) and Neu overexpressing (EpH4-A6) cells were seeded in 40 μL of growing medium in duplicate in each well of a white […] plate (Costar). 16,000 compounds from a chemical library (Chembridge) were transferred to each well to a final concentration of 10-15 μM. Plates were incubated at 37° C. with 5% CO2 for 36 hours. BrdU was then added to a final concentration of 20 μM and the cells were incubated at 37° C. with 5% CO2 for an additional 3 hours. Cells were then washed with PBS and fixed with 75% ethanol/25%TBS at 4° C. for 1 hour. DNA denaturation was achieved by incubation with 2M HCl/0.5% Tween-20 for 20 min, followed by neutralization with 2M NaOH in Hank's Balanced Salt Solution (HBSS). Cells were subsequently washed with HBSS, blocked with PBS/0.3% Tween-20/1% BSA (PSTB), and incubated with 0.5 μg/mL of mouse anti-BrdU antibody (PharMingen) and 1:5,000 dilution of anti-mouse IgG coupled to HRP in PBSTB for 1 hour at room temperature. Finally the cells were washed with PBS and 20 μL of 1:1 mix of the enhanced chemiluminescence reagent (Pierce) was then added to each well of a plate. In every case addition of reagents was done using a mutli-drop 384 liquid dispenser (Labsystems) and the washes using a plate washer (Bio-Tek Instruments). Chemiluminescent signal from each plate was detected by autoradiograph and multilabel counter Victor^2 (Wallac) in order to quantitate results. A control cytoblot using inhibitory anti-Neu monoclonal antibodies was performed following the same procedure with the exception that anti-Neu antibody was added to the medium at a final concentration of 20 μg/mL.
The potency of these 55 small molecules was then evaluated at lower concentrations, i.e., at 10 μM and 1 μM using the cytoblot assay described above. […] These six compounds are referred to as E20 (ID 141525); F12 (ID 120590); F16 (ID 274873); H10 (ID 120670); J6 (ID 120856); N12 (ID 215015), and their structure is shown in FIGS. 2 A-F, respectively. […] These two compounds are referred to as L4 (ID 121113); B15(ID217496) […]. FIGS. 2 A-H also show proton NMR spectra of each of the molecules that confirmed their identity. […]
On the technique in general: Dividing cells build labelled thymidine or BrdU into new DNA.

Data set [2] has as its system kidney, heart and liver samples. The data set is described as follows: pathology examination of kidney, liver and heart. It is filed as in vivo, mouse. Conditions: four F16 treated and four placebo mice. The text has this: All the tumors from the twenty mice as well as kidney, liver and heart samples from four placebo and four F16 treated mice were sent for pathology examination. […] Necrosis probably results from the lack of sufficient blood supply to these fast growing tumors.

For a further data set, the system named is 16MB9a. The data set is described as follows: uptake/retention of F16 by fluorescence microscopy. It is filed as cell-based, mouse. Conditions: 3 μM F16, 24 hours. On the procedure:
(§1) The following cell lines were used in this Example: EpH4-A6 (Neu^T); EpH4-EV; Neu-initiated mouse tumor cell lines NF980, NAF and nNeu; Ras-initated tumor cell lines SH1.1 and AC816; a Myc-initiated tumor cell line 16MB9a; and normal mammary epethileal cells HC11, NuMg and EpH4. The cells were grown on 60 mm plates and incubated with medium alone or medium containing 3 μM F16 for 24 hours at 37° C. The fluorescence signal of F16 was visualized under inverted microscope Axiovert (Zeiss) using a standard fluorescein filter set. Cells were photographed using a digital camera D1 (Nikon).

Data set [3] has as its system EpH4-A6 cells. The data set is described as follows: uptake/retention of F16 by fluorescence microscopy. It is filed as cell-based, mouse. Conditions: 3 μM F16, 24 hours. On the procedure: as §1
The next data set has as its system EpH4-EV cells. The experiment in a line: uptake/retention of F16 by fluorescence microscopy. Type of data set: cell-based, mouse. Particulars: 3 μM F16, 24 hours. On the procedure: as §1
In data set [4] the test system is ras- and neu-initiated tumor cell lines. The data set is described as follows: uptake/retention of F16 by fluorescence microscopy. It is filed as cell-based, mouse. Particulars: 3 μM F16, 24 hours. On the procedure:
as §1

The test system of data set [5] is isolated mouse liver mitochondria. The experiment in a line: mitochondrial membrane potential by F16 fluorescence. Particulars: 1 μM and 50 μM F16. It is filed as biochemical. On the procedure: Mitochondria were isolated from liver of Balb/c7 mice by standard differential centrifugation, and resuspended in isolation buffer (0.2 M sucrose, 10 mM Tris-MOPS pH 7.4, 0.1 mM EGTA-Tris, 0.1% delipidated BSA) (Costantini et al. (1995) Toxicology (99) 77-88). Protein concentration was determined by Bradford assay. For swelling determination, changes in side scatter at 545±2.5 nm of a 0.5 mg/ml suspension of mitochondria in experimental buffer (125 mM KCl, 10 mM Tris-MOPS pH 7.4, 1 mM Pi, 5 mM glutamate, 2.5 mM malate, 10 μM EGTA-Tris, pH 7.4) were monitored by using LS-50B spectrofluorimeter. To monitor changes in mitochondrial membrane potential, the intrinsic potentiometric properties of F16 were used. Mitochondria (0.5 mg/ml) were incubated in experimental buffer with the indicated concentrations of F16 and changes in F16 fluorescence intensity were measured, using a LS-50B spectrofluorimeter at 25° C., with excitation and emission wavelengths set at 415±2.5 nm and 520±5 nm, respectively. All reactions were performed at 25° C. and the instrument was equipped with magnetic stirring.
The fluorescent properties of F16 were used for this purpose. It was determined whether the fluorescence of a 1 μM solution of F16 changed in response to mitochondrial energization and depolarization. […] Preincubation of mitochondria with the PTP inhibitor CsA only partially blunted this effect.

As for `C[n+]1ccc(/C=C/c2c[nH]c3ccccc23)cc1.[I-]` [F16], the “score in anti-BrdU cytoblot” value in the data set with EpH4-A6 cells [1] (EpH4-A6 cells at 10 μM) is reported as “positive”. Further, in the data set on EpH4-A6 cells [1] (EpH4-A6 cells, concentrations from 100 to 0.01 μM, FIG. 3), the “concentration up to which anti-proliferative activity is retained” value is on record as 100 nM. Also, the “concentration at which F16 is effective / partially inhibits BrdU incorporation (as low as)” value in the data set with EpH4-A6 cells [1] (EpH4-A6 cells, cytoblot) was determined as 10 nM. In the data set on EpH4-A6 cells [1] (EpH4-A6 cells, cytoblot), the “concentration at which anti-proliferative activity was shown (as low as)” value is 1 µM. Besides, the “pathology of kidney, heart and liver samples versus placebo” value in data set [2] is given as “no major differences”. The “uptake/retention of F16 (fluorescence)” value with 16MB9a is reported as “does not show fluoresence”; in the data set on EpH4-A6 cells [3], “very intense fluorescent green punctuated staining”; in the data set on EpH4-EV cells it was “do not show any uptake/retention”; in data set [4] it was “very intense fluorescent green punctuated staining”. For the same compound, in data set [5], the mitochondrial depolarization entry is on record as “directly causes mitochondrial depolarization”.
